Patent US7341749B2, “Flavopereirine and alstonine combinations in the treatment and prevention of prostate cancer” (Natural Source International Ltd., priority 2004, dated 2008)

Test system: LNCaP cells
Test: Induction of apoptosis (PARP cleavage, Caspase-3 activity)
Assay type: cell-based, human
Settings: inferred from the extract experiments

Compound | induction of the apoptosis pathway (mechanism of action of the active compound)
COC(=O)C1=CO[C@@H](C)[C@@H]2Cn3ccc4c5ccccc5nc-4c3C[C@H]12 [alstonine] | relatively minor effect
CCc1ccc2c3[nH]c4ccccc4c3cc[n+]2c1 [flavopereirine] | primary mechanism of action
